Data on five compounds can be found in PMC4503722, “Novel Phenotypic Outcomes Identified for a Public Collection of Approved Drugs from a Publicly Accessible Panel of Assays” (PLoS ONE, 2015).

One assay has as its target T1, hKDR (Homo sapiens, UniProt P35968).
T1 construct: purchased Cerep (LANCE kinase assay platform, contract assay)
Nature of the assay: Cerep LANCE kinase assay hKDR (S1 assay 32). The class given is biochemical. (In general: In TR-FRET formats the signal depends on donor and acceptor labels being close together.)

Assay [1] has as its system HCT116 cells treated with a GSK3β inhibitor. Nature of the assay: cells. Type of assay: cell-based.
For another assay, the system named is SW480. Nature of the assay: cells. The class given is cell-based.
Another assay has as its system NCI-H716 cells. Nature of the assay: cells. The class given is cell-based, Human.
The next assay addresses T2, hFLT3 (Homo sapiens, UniProt P36888).
T2 construct: purchased Cerep (LANCE kinase assay platform, contract assay)
Nature of the assay: Cerep LANCE kinase assay hFLT3 (S1 assay 35). The class given is biochemical. As to conditions: read-out: FLT3.

Another assay addresses T3, hGSK3b (Homo sapiens, UniProt P49841).
T3 construct: purchased Cerep (LANCE kinase assay platform, contract assay)
As to the kind of experiment: Cerep LANCE kinase assay hGSK3b (S1 assay 34). Type of assay: biochemical. As to conditions: read-out: GSK3b.

A further assay relates to DLD-1. Nature of the assay: cells. Type of assay: cell-based.
Assay [2] concerns nuclear β-catenin in C2C12 cells. As to the kind of experiment: cells. The class given is cell-based.
The next assay deals with HeLa cells. Nature of the assay: cells. The class given is cell-based. As to conditions: HeLa, HeLa, read-out: CellCycle G2/M.
A further assay deals with T4, hp70S6K1 (RPS6KB1) (Homo sapiens, UniProt P23443).
T4 construct: purchased Cerep (LANCE kinase assay platform, contract assay)
Nature of the assay: Cerep LANCE kinase assay hp70S6K1 (S1 assay 31). The class given is biochemical. As to conditions: read-out: p70S6K1.

The subject of the next assay is HCT116. Nature of the assay: cells. Type of assay: cell-based.
Another assay concerns INS-1E cells. As to the kind of experiment: cells. Type of assay: cell-based, rat. As to conditions: read-out: Insulin Secretion.
Assay [3] concerns endothelial tube formation in co-cultures of ECFCs and ADSCs treated with VEGF. Nature of the assay: cells. Type of assay: cell-based, human. As to conditions: read-out: Anti-Angiogenesis.
Another assay has as its target T5, hJAK2 (Homo sapiens, UniProt O60674).
T5 construct: purchased Cerep (LANCE kinase assay platform, contract assay)
Nature of the assay: Cerep LANCE kinase assay hJAK2 (S1 assay 33). The class given is biochemical. As to conditions: read-out: JAK2.

The mark [4] stands for this setting: Homo sapiens, HCT-116, read-out: GSK3b inh pretreated_Viability ATP HCT116.
The mark [5] stands for this setting: Homo sapiens, SW480, basal, read-out: Basal_Viability ATP SW480.
The mark [6] stands for this setting: Homo sapiens, IC50 / EC50, NCI-H716, read-out: GLP 1 Secretion.
Where [7] appears, read: Homo sapiens, DLD-1, basal, read-out: Basal_Viability ATP DLD-1.
Setting [8] is: Mus musculus, C2C12, IC50 / EC50, C2C12 beta-catenin translocation, read-out: Wnt Pathway.
[9] abbreviates: Homo sapiens, HCT-116, basal, read-out: Basal_Viability ATP HCT116.
The mark [10] stands for this setting: Rattus norvegicus, IC50 / EC50, INS-1E.
The mark [11] stands for this setting: Homo sapiens, IC50 / EC50, endothelial tube area, ADSC/ECFC co-culture.
The mark [12] stands for this setting: Homo sapiens, SW480, read-out: Basal_Viability ATP SW480.
[13] abbreviates: Homo sapiens, NCI-H716, read-out: GLP 1 Secretion.
Setting [14] is: Homo sapiens, DLD-1, read-out: Basal_Viability ATP DLD-1.
[15] abbreviates: Mus musculus, C2C12, read-out: Wnt Pathway.
Setting [16] is: Homo sapiens, HCT-116, read-out: Basal_Viability ATP HCT116.

Read-outs that look alike come from different tables or passages of the source.

T3 sequence (P49841 whole entry): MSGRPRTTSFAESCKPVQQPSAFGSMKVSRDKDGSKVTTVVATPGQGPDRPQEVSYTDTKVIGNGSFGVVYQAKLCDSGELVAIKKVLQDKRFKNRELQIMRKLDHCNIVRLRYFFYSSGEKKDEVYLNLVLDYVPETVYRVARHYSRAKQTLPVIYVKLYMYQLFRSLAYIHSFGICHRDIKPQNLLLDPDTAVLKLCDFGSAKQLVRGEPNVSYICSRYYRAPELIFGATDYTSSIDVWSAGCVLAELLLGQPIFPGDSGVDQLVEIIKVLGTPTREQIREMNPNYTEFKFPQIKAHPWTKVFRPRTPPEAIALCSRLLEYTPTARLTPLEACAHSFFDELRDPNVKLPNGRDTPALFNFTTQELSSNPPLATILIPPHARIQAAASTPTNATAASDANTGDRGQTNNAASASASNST
T1 sequence (P35968 20-1356): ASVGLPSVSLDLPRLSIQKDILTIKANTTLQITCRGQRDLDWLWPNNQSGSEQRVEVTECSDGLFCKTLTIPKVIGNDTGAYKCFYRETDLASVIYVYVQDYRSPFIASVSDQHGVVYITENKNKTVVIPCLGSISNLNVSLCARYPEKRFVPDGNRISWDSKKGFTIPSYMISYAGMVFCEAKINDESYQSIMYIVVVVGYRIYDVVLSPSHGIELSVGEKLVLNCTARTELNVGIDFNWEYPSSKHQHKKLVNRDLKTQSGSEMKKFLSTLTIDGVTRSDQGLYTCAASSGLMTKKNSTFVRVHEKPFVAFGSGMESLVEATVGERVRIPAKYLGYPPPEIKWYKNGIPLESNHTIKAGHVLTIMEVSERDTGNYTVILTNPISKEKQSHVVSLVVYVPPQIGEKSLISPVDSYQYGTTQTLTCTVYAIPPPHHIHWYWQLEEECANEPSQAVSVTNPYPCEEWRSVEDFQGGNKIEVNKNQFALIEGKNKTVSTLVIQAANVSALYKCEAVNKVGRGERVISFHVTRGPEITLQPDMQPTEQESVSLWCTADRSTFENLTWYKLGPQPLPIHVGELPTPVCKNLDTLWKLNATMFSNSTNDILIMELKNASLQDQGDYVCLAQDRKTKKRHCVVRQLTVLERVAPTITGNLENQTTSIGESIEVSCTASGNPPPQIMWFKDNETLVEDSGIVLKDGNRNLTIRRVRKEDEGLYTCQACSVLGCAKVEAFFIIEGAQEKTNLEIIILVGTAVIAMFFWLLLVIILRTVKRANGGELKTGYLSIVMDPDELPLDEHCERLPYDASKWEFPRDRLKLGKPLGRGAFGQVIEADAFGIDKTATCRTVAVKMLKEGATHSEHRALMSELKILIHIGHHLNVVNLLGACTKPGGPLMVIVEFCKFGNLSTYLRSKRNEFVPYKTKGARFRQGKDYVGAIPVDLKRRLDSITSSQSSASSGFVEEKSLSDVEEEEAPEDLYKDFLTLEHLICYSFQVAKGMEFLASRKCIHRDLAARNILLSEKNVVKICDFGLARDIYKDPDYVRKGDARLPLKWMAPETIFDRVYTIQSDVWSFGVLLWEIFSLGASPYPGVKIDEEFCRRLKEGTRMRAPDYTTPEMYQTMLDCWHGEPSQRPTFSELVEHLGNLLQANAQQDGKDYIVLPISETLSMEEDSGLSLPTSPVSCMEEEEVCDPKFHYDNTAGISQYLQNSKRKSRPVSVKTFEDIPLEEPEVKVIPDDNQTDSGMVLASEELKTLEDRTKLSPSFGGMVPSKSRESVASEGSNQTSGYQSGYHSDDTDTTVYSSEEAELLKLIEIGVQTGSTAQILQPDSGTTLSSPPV
T4 sequence (P23443 whole entry): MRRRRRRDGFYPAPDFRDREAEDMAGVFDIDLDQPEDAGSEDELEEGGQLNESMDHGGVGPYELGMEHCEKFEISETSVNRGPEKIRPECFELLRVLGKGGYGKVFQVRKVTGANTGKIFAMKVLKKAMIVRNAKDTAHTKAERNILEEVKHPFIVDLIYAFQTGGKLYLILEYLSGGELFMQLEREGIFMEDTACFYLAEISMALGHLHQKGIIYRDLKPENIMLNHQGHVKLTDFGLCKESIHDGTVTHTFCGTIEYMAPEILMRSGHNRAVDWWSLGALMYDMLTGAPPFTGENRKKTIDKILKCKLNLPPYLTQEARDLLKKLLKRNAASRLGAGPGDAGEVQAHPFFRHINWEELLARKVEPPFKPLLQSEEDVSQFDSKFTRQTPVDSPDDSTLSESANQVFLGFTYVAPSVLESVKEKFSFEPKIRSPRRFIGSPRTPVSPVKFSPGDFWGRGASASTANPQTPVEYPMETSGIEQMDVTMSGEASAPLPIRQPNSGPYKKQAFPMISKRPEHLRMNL
T2 sequence (P36888 27-993): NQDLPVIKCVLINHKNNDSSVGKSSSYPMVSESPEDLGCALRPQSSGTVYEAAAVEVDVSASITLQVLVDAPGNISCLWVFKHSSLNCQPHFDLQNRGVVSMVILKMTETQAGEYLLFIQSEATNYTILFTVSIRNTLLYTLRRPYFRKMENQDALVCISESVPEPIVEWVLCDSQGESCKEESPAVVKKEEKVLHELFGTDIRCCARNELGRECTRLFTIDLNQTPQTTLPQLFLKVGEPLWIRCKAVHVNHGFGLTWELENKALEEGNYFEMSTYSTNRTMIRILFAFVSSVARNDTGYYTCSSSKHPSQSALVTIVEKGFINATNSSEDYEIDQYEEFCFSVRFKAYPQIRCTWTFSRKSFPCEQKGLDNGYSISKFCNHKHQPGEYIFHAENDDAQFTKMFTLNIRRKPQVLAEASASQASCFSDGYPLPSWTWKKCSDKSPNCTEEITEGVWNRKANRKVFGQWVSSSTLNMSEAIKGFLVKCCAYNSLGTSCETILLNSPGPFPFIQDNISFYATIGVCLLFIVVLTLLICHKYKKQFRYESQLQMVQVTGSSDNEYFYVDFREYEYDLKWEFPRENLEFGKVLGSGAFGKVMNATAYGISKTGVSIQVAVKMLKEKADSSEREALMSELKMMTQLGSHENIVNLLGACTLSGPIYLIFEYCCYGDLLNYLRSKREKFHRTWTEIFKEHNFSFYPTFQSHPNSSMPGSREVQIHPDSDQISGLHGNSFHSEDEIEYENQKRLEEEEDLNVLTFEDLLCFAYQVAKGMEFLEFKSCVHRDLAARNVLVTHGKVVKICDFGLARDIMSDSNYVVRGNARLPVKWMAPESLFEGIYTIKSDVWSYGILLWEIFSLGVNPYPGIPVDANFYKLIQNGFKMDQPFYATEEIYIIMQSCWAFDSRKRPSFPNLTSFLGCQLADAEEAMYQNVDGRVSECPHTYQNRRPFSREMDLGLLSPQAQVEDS
T5 sequence (O60674 whole entry): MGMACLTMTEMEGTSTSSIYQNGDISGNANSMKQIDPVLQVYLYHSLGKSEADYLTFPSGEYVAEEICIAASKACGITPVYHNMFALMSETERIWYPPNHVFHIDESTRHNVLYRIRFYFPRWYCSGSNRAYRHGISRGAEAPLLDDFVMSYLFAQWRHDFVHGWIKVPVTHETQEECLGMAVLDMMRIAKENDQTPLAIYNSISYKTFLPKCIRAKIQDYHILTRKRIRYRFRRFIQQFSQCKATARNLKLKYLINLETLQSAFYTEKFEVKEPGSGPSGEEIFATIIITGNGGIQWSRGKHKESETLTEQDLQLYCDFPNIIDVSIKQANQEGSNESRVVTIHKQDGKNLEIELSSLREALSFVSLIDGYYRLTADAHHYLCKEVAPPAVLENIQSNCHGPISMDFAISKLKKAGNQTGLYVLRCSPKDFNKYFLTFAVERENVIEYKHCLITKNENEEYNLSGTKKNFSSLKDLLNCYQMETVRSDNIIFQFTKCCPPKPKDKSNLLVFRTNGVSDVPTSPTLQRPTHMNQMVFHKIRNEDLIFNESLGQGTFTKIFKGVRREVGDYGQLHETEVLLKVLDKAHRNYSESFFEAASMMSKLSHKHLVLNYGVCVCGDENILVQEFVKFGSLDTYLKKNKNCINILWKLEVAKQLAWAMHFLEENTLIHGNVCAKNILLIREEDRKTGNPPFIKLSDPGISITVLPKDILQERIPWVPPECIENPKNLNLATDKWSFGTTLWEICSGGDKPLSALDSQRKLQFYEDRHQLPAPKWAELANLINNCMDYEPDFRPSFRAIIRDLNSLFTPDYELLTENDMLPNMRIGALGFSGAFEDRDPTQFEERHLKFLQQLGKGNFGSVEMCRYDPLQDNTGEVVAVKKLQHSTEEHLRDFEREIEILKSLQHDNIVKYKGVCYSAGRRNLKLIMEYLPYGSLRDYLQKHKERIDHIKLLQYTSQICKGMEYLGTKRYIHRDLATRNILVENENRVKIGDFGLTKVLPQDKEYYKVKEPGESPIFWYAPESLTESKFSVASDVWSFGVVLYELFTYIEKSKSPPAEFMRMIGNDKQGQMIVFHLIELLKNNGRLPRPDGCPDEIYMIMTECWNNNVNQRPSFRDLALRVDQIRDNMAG

`CC[C@@]1(O)C(=O)OCc2c1cc1n(c2=O)Cc2c-1nc1ccccc1c2/C=N/OC(C)(C)C` [Gimatecan]: the IC50 on hKDR (read-out: KDR) is greater than 20 µM; in assay [1] (setting [4]), 0.0667 µM; in the assay on SW480 (setting [5]) it was 0.222 µM; on hFLT3 it was greater than 20 µM; on hGSK3b it was greater than 20 µM; with DLD-1 (setting [7]), 0.315 µM. The IC50 on hp70S6K1 (RPS6KB1) was greater than 20 µM; in the assay on HCT116 (setting [9]), 0.0667 µM; in assay [3] (setting [11]) it was 0.002 µM; at hJAK2 it was greater than 20 µM. Moreover, the EC50 in the assay on NCI-H716 cells (setting [6]) is greater than 10 µM; in assay [2] (setting [8]), 0.0032 µM; with HeLa cells (Homo sapiens, IC50 / EC50), greater than 10 µM; in the assay with INS-1E cells (setting [10]), greater than 10 µM.
As for `CCN(CC)CCNc1ccc(CO)c2sc3ccccc3c(=O)c12` [Hycanthonum], the IC50 is greater than 20 µM at hKDR (kinase assay, read-out: KDR); greater than 20 µM in assay [1] (HCT116 pretreated with GSK3b inhibitor, read-out: GSK3b inh pretreated_Viability ATP HCT116); 6.84 µM in the assay on SW480 (basal, SW480, read-out: Basal_Viability ATP SW480); greater than 20 µM at hFLT3 (kinase assay); greater than 20 µM at hGSK3b (kinase assay); greater than 20 µM with DLD-1 (basal, DLD-1, read-out: Basal_Viability ATP DLD-1). In addition, the IC50 is 17.1 µM on hp70S6K1 (RPS6KB1) (kinase assay); 8.59 µM in the assay on HCT116 (basal, HCT116, read-out: Basal_Viability ATP HCT116); 8.35 µM in assay [3]; greater than 20 µM on hJAK2 (kinase assay). The EC50 with NCI-H716 cells (S2 Table, module primary assay, 20 / 20.1 codes per legend, read-out: GLP 1 Secretion) was greater than 10 µM; in assay [2] (read-out: Wnt Pathway) it was 2.67 µM; in the assay on HeLa cells (S2 Table, 20 = no response at highest concentration), greater than 10 µM; with INS-1E cells (S2 Table, module primary assay, 20 / 20.1 codes per legend), greater than 10 µM.
For `CC(=O)[C@]1(O)Cc2c(O)c3c(c(O)c2[C@@H](O[C@H]2C[C@H](N)[C@H](O)[C@H](C)O2)C1)C(=O)c1ccccc1C3=O` [Idarubicin], the IC50 was greater than 20 µM on hKDR (kinase assay, read-out: KDR); 0.1 µM in [1] (setting [4]); 4.75 µM with SW480 (setting [12]); greater than 20 µM on hFLT3 (kinase assay); greater than 20 µM at hGSK3b (kinase assay); 0.387 µM in the assay on DLD-1 (setting [14]). Also, the IC50 is greater than 20 µM on hp70S6K1 (RPS6KB1) (kinase assay), 0.0667 µM in the assay with HCT116 (setting [16]), 0.0208 µM in assay [3] (Homo sapiens) and greater than 20 µM at hJAK2 (kinase assay). In addition, the EC50 in the assay on NCI-H716 cells (setting [13]) was greater than 10 µM; in [2] (setting [15]), 0.1 µM; with HeLa cells (Homo sapiens) it was greater than 10 µM; in the assay with INS-1E cells (Rattus norvegicus, INS-1E), greater than 10 µM.
Consider `COC(=O)Nc1nc2ccc(C(=O)c3ccccc3)cc2[nH]1` [Mebendazole], for which the IC50 on hKDR was 1.43 µM; in assay [1] (setting [4]) it was greater than 20 µM; in the assay on SW480 (setting [12]), greater than 20 µM; at hFLT3 (kinase assay), greater than 20 µM; on hGSK3b (kinase assay), greater than 20 µM; with DLD-1 (setting [14]), 10.1 µM. Besides, the IC50 at hp70S6K1 (RPS6KB1) (kinase assay) was greater than 20 µM; in the assay with HCT116 (setting [16]), 8.26 µM; in assay [3] (Homo sapiens), 0.37 µM; on hJAK2 (kinase assay), greater than 20 µM. The EC50 was greater than 10 µM in the assay with NCI-H716 cells (setting [13]); 0.245 µM in assay [2] (setting [15]); 0.08 µM in the assay with HeLa cells (Homo sapiens); greater than 10 µM with INS-1E cells (Rattus norvegicus, INS-1E).
In the case of `Cc1ccccc1C(=O)Nc1ccc(C(=O)N2CCCC(N(C)C)c3ccccc32)cc1` (stereo not shown) [Mozavaptan], the IC50 at hKDR (read-out: KDR) is greater than 20 µM; in [1] (setting [4]) it was greater than 20 µM; in the assay with SW480 (setting [5]) it was 3.45 µM; on hFLT3, greater than 20 µM; on hGSK3b, greater than 20 µM; with DLD-1 (setting [7]) it was 12.8 µM. Further, the IC50 was greater than 20 µM on hp70S6K1 (RPS6KB1), 7.56 µM in the assay on HCT116 (setting [9]), greater than 10 µM in [3] (setting [11]) and greater than 20 µM on hJAK2. The EC50 is greater than 10 µM in the assay with NCI-H716 cells (setting [6]); 4.56 µM in [2] (setting [8]); greater than 10 µM in the assay with HeLa cells (Homo sapiens, IC50 / EC50); greater than 10 µM in the assay on INS-1E cells (setting [10]).
